Assay results reported in US9999222B2, “Herbicidal combination comprising azines” (BASF SE, priority 2014, dated 2018).
Values joined by “and” are separate entries in the source; they are usually repeats but may differ in a detail not shown here. Equal entries are not always repeated. Where two headings read alike, the source gives them in different places.

Columns and labels:
Assay in all cases: Greenhouse test, pre-emergence treatment
ABUTH = type: in vivo, Abutilon theophrasti; conditions: Abutilon theophrasti, 480 h
Excerpt: (§1) The culture containers used were plastic flowerpots containing loamy sand with approximately 3.0% of humus as the substrate. The seeds of the test plants were sown separately for each species.
(§2) For the pre-emergence treatment, the active ingredients, which had been suspended or emulsified in water, were applied directly after sowing by means of finely distributing nozzles. The containers were irrigated gently to promote germination and growth and subsequently covered with transparent plastic hoods until the plants had rooted. This cover caused uniform germination of the test plants, unless this had been impaired by the active ingredients.
(§3) Depending on the species, the plants were kept at 10-25° C. or 20-35° C., respectively.
(§4) The test period extended over 2 to 4 weeks. During this time, the plants were tended, and their response to the individual treatments was evaluated.
(§5) Evaluation was carried out using a scale from 0 to 100. 100 means no emergence of the plants, or complete destruction of at least the aerial moieties, and 0 means no damage, or normal course of growth. A moderate herbicidal activity is given at values of at least 60, a good herbicidal activity is given at values of at least 70, and a very good herbicidal activity is given at values of at least 85.
(§6) The respective stated components a and b, and if appropriate, c were formulated as a 10% by weight strength emulsion concentrate and, with addition of the amount of solvent system, introduced into the spray liquor used for applying the active compound.
(§7) In the examples, the solvent used was water.
(§8) In the examples below, using the method of S. R. Colby (1967) “Calculating synergistic and antagonistic responses of herbicide combinations”, Weeds 15, p. 22ff., the value E, which is expected if the activity of the individual active compounds is only additive, was calculated. E=X+Y−(X·Y/100) where • X=percent activity using active compound a at an application rate A; • Y=percent activity using active compound b at an application rate B; • E=expected activity (in %) by a+b at application rates A+B.
(§9) If the value found experimentally is higher than the value E calculated according to Colby, a synergistic effect is present.

POLCO = type: in vivo, Polygonum convolvulus; conditions: pre-emergence
Excerpt: as §1, §2, §3, §4, §5, §6, §7, §8, §9

ANTAR = type: in vivo; conditions: Anthemis arvensis, 480 h, 20 DAT, read-out: observed % activity
Excerpt: as §1, §2, §3, §4, §5, §6, §7, §8, §9

COMBE = type: in vivo, Commelina benghalensis; conditions: Commelina benghalensis, pre-emergence, 480 h
Excerpt: as §1, §2, §3, §4, §5, §6, §7, §8, §9

EPHHL = type: in vivo, Euphorbia heterophylla; conditions: pre-emergence, pre-emergence
Excerpt: as §1, §2, §3, §4, §5, §6, §7, §8, §9

GALAP = type: in vivo, Galium aparine; conditions: pre-emergence, pre-emergence
Excerpt: as §1, §2, §3, §4, §5, §6, §7, §8, §9

GERPU = type: in vivo, Geranium pusillum; conditions: Geranium pusillum, pre-emergence, 480 h
Excerpt: as §1, §2, §3, §4, §5, §6, §7, §8, §9

KCHSC = type: in vivo, Kochia scoparia; conditions: pre-emergence, pre-emergence
Excerpt: as §1, §2, §3, §4, §5, §6, §7, §8, §9

IPOHE = type: in vivo, Ipomoea hederacea; conditions: Ipomoea hederacea, 480 h
Excerpt: as §1, §2, §3, §4, §5, §6, §7, §8, §9

SIDRH = type: in vivo, Sida rhombifolia; conditions: Sida rhombifolia, pre-emergence, 480 h
Excerpt: as §1, §2, §3, §4, §5, §6, §7, §8, §9

ALOMY = type: in vivo, Alopecurus myosuroides; conditions: Alopecurus myosuroides, pre-emergence, 480 h
Excerpt: as §1, §2, §3, §4, §5, §6, §7, §8, §9

SETFA = type: in vivo, Setaria faberi; conditions: SETFA, use rate 25 g ai/ha, 20 DAT
Excerpt: as §1, §2, §3, §4, §5, §6, §7, §8, §9

CENCY = type: in vivo; conditions: 480 h, individual, read-out: observed % activity 20 DAT
[1] = 15 g ai/ha, read-out: observed % activity 20 DAT
[2] = 20 g ai/ha, 20 DAT, read-out: observed % activity
[3] = 30 g ai/ha, read-out: observed % activity 20 DAT
[4] = 40 g ai/ha, 20 DAT, read-out: observed % activity
[5] = 375 g ai/ha, 20 DAT, read-out: observed % activity
[6] = 750 g ai/ha, 20 DAT, read-out: observed % activity

Question: Which results are given for `CCc1cnc(C2=NC(C)(C(C)C)C(=O)N2)c(C(=O)O)c1` (stereo not shown) [imazethapyr]?
Answer: inhibition at 15 g/ha (ABUTH; [1]): 0%; inhibition at 20 g/ha (ABUTH; [2]): 60%; inhibition at 30 g/ha (ABUTH; [3]): 15%; inhibition at 40 g/ha (ABUTH; [4]): 80%; inhibition at 20 g/ha (POLCO; Fallopia convolvulus, 480 h, 20 g ai/ha, 20 DAT, read-out: observed % activity): 35%; inhibition at 40 g/ha (POLCO; Fallopia convolvulus, 480 h, 40 g ai/ha, 20 DAT, read-out: observed % activity): 90%; inhibition at 15 g/ha (POLCO; Fallopia convolvulus, 480 h, 15 g ai/ha, read-out: observed % activity 20 DAT): 30%; inhibition at 30 g/ha (POLCO; Fallopia convolvulus, 480 h, 30 g ai/ha, read-out: observed % activity 20 DAT): 65%; observed % activity 20 DAT (POLCO; 30 g ai/ha): 60%; inhibition at 20 g/ha (ANTAR; 20 g ai/ha): 30%; inhibition at 40 g/ha (ANTAR; 40 g ai/ha): 30%; inhibition at 20 g/ha (COMBE; [2]): 45%; inhibition at 40 g/ha (COMBE; [4]): 65%; inhibition at 15 g/ha (COMBE; [1]): 0%; inhibition at 30 g/ha (COMBE; [3]): 35%; inhibition at 30 g/ha (EPHHL; Euphorbia heterophylla, 480 h, 30 g ai/ha, read-out: observed % activity 20 DAT): 65%; inhibition at 15 g/ha (GALAP; Galium aparine, 480 h, 15 g ai/ha, read-out: observed % activity 20 DAT): 50%; inhibition at 30 g/ha (GALAP; Galium aparine, 480 h, 30 g ai/ha, read-out: observed % activity 20 DAT): 60%; inhibition at 20 g/ha (GERPU; [2]): 20%; inhibition at 40 g/ha (GERPU; [4]): 85%; inhibition at 15 g/ha (GERPU; [1]): 30%; inhibition at 30 g/ha (GERPU; [3]): 30%; inhibition at 15 g/ha (KCHSC; Bassia scoparia, 480 h, 15 g ai/ha, read-out: observed % activity 20 DAT): 70%; inhibition at 30 g/ha (KCHSC; Bassia scoparia, 480 h, 30 g ai/ha, read-out: observed % activity 20 DAT): 85%; inhibition at 30 g/ha (IPOHE; [3]): 0%; inhibition at 20 g/ha (SIDRH; [2]): 45%; inhibition at 40 g/ha (SIDRH; [4]): 80%; inhibition at 15 g/ha (SIDRH; [1]): 15%; inhibition at 30 g/ha (SIDRH; [3]): 60%

Question: How did the inhibition at 125 g/ha (ALOMY; read-out: observed % activity 20 DAT) turn out when `O=C(O)CNCP(=O)(O)O` [Glyphosate, glyphosate] was run?
Answer: 0%

Question: With `O=C(Nc1ccc(F)cc1)c1cccc(Oc2cccc(C(F)(F)F)c2)n1` [Picolinafen, picolinafen] as the compound, how does the “observed % activity 20 DAT” value (POLCO; POLCO, use rate 25 g ai/ha, 20 DAT) read?
Answer: 0%

Question: And the “observed % activity 20 DAT” value (POLCO; POLCO, use rate 50 g ai/ha, 20 DAT)?
Answer: 0%

Question: And the “observed % activity 20 DAT” value (SETFA)?
Answer: 10%

Question: And the “observed % activity 20 DAT” value (KCHSC; KCHSC, use rate 50 g ai/ha, 20 DAT)?
Answer: 30%

Question: What does the source list for `CC(C)c1ccc(NC(=O)N(C)C)cc1` [Isoproturon, isoproturon]?
Answer: inhibition at 375 g/ha (ABUTH; [5]): 20%; inhibition at 750 g/ha (ABUTH; [6]): 65%; inhibition at 250 g/ha (ABUTH; ABUTH, individual, use rate 250 g ai/ha, read-out: observed % activity 20 DAT): 50%; inhibition at 500 g/ha (ABUTH; ABUTH, individual, use rate 500 g ai/ha, read-out: observed % activity 20 DAT): 15%; inhibition at 375 g/ha (POLCO; Fallopia convolvulus, 480 h, 375 g ai/ha, 20 DAT, read-out: observed % activity): 0%; inhibition at 750 g/ha (POLCO; Fallopia convolvulus, 480 h, 750 g ai/ha, 20 DAT, read-out: observed % activity): 25%; inhibition at 250 g/ha (POLCO; Fallopia convolvulus, 480 h, POLCO, individual, use rate 250 g ai/ha, read-out: observed % activity 20 DAT): 10%; inhibition at 375 g/ha (COMBE; [5]): 0%; inhibition at 750 g/ha (COMBE; [6]): 45%; inhibition at 250 g/ha (COMBE; COMBE, individual, use rate 250 g ai/ha, read-out: observed % activity 20 DAT): 0%; inhibition at 500 g/ha (COMBE; COMBE, individual, use rate 500 g ai/ha, read-out: observed % activity 20 DAT): 10%; observed % activity 20 DAT (EPHHL; EPHHL, individual, use rate 250 g ai/ha): 10% and 25%; inhibition at 500 g/ha (EPHHL; Euphorbia heterophylla, 480 h, EPHHL, individual, use rate 500 g ai/ha, read-out: observed % activity 20 DAT): 35%; observed % activity 20 DAT (GALAP; GALAP, individual, use rate 500 g ai/ha): 65% and 15%; inhibition at 250 g/ha (GALAP; Galium aparine, 480 h, GALAP, individual, use rate 250 g ai/ha, read-out: observed % activity 20 DAT): 30%; inhibition at 375 g/ha (GERPU; [5]): 20%; inhibition at 750 g/ha (GERPU; [6]): 40%; inhibition at 500 g/ha (GERPU; GERPU, individual, use rate 500 g ai/ha, read-out: observed % activity 20 DAT): 0%; inhibition at 750 g/ha (KCHSC; Bassia scoparia, 480 h, 750 g ai/ha, 20 DAT, read-out: observed % activity): 98%; inhibition at 250 g/ha (KCHSC; Bassia scoparia, 480 h, KCHSC, individual, use rate 250 g ai/ha, read-out: observed % activity 20 DAT): 98%; inhibition at 500 g/ha (KCHSC; Bassia scoparia, 480 h, KCHSC, individual, use rate 500 g ai/ha, read-out: observed % activity 20 DAT): 98%; inhibition at 750 g/ha (IPOHE; [6]): 40%; inhibition at 375 g/ha (SIDRH; [5]): 0%; inhibition at 250 g/ha (SIDRH; SIDRH, individual, use rate 250 g ai/ha, read-out: observed % activity 20 DAT): 0%; inhibition at 500 g/ha (SIDRH; SIDRH, individual, use rate 500 g ai/ha, read-out: observed % activity 20 DAT): 40%; inhibition at 250 g/ha (CENCY; use rate 250 g ai/ha): 30%; inhibition at 500 g/ha (CENCY; use rate 500 g ai/ha): 30%

Question: Which inhibition at 125 g/ha (ALOMY; 125 g ai/ha, 20 DAT, read-out: observed % activity) does the source give for `CCOCN(C(=O)CCl)c1c(C)cccc1CC` [acetochlor] here?
Answer: 0%

Question: And the inhibition at 125 g/ha (GALAP; Galium aparine, 480 h, 125 g ai/ha, 20 DAT, read-out: observed % activity)?
Answer: 60%

Question: What about the inhibition at 125 g/ha (KCHSC; Bassia scoparia, 480 h, 125 g ai/ha, 20 DAT, read-out: observed % activity) of the same compound?
Answer: 0%
